The target of this assay is T1, renin (Homo sapiens, UniProt P00797).
T1 sequence (P00797 67-406): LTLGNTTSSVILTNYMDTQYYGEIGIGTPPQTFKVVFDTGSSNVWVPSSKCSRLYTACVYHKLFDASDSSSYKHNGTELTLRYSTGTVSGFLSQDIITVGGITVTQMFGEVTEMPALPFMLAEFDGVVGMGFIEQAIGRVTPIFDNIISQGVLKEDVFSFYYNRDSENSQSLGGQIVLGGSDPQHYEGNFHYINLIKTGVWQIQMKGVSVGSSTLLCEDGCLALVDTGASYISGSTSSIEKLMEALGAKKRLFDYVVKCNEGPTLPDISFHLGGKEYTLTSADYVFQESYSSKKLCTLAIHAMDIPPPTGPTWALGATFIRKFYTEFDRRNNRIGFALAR
Kind of assay: renin inhibitory potency. The class given is biochemical. The note with it: compared with the more retained 2R,5R isomer separated by HPLC. The text has this:
The activity of the compounds of the present invention as inhibitors of the angiotensinogen-cleaving activity of renin may be determined by studying (1) their ability to inhibit the angiotensinogen-cleaving activity of renin in vitro and (2) their ability to antagonize the exogenous renin-induced pressor response in vivo.

Take `CCCC[C@H](NC(=O)[C@H](Cc1ccccc1)NC(=O)N1CCOCC1)C(=O)N[C@@H](CC1CCCCC1)C(=O)C(F)(F)[C@@H](CC(C)C)C(=O)OCC` [2S,5S product, ethyl (2S,5S)-2-isobutyl-3,3-difluoro-4-keto-5-N-(N-[morpholinocarbonyl-L-phenylalanyl]-L-norleucyl)-amino-6-cyclohexylhexanoate]: the renin inhibitory potency entry is reported as “more active”.
